# In ChEMBL document CHEMBL1914374, “Effect of different C3-aryl substituents on the antioxidant activity of 4-hydroxycoumarin derivatives” (Bioorg Med Chem, 2011):
# Legend:
# Format in all cases: functional
# [1] = test system: Radical scavenging activity; assay: Antioxidant activity assessed as DPPH free radical scavenging activity after 10 mins by UV-Vis spectrophotometric analysis
# [2] = Antioxidant activity in soybean lipoxygenase-induced beta-carotene-linoleic acid co-oxidation assessed as inhibition of beta-carotene bleaching after 10 mins relative to control; set-up: scale not given: the % may be the effect or the level left
# [3] = Antioxidant activity assessed as trolox equivalents of ABTS radical scavenging activity by TEAC assay
EC50 [1] [mM],SMILES,Activity [2] [%/mmol],Activity [3] [µmolequiv/g]
4.15,O=c1oc2ccccc2c(O)c1-c1ccc(Cl)cc1,5.94,50
4.19,O=c1oc2ccccc2c(O)c1-c1ccccc1,5.79,46.6
4.14,O=c1oc2ccccc2c(O)c1-c1ccccc1Cl,–,50

# The next lines start with the compound.
SMILES,EC50 [1] [mM],Activity [2] [%/mmol],Activity [3] [µmolequiv/g]
Cc1cc(=O)oc2cc(O)ccc12 [HYMECROMONE],8.9,< 0.5,54.8
O=c1cc(O)c2ccccc2o1 [4-HYDROXYCOUMARINS],3.8,2.07,186
O=c1oc2ccccc2c(O)c1-c1cccc2ccccc12,6.41,4.26,56.8
COc1ccc(-c2c(O)c3ccccc3oc2=O)cc1,0.54,23.1,699
COc1ccccc1-c1c(O)c2ccccc2oc1=O,1.92,25.5,567
